Results: patent publication US10647702B2, “Aryl-substituted imidazoles” (St. Jude Children's Research Hospital, priority 2010, dated 2020)

What was measured:
[1] = Plasma stability, mouse plasma; assay type: in vitro ADME; conditions: 37° C., up to 48 hr
Experimental: (§1) Compound stocks were 10 mM in DMSO. The internal standard was 10 μM warfarin in methanol. 1.9 ml mouse plasma (Fisher Scientific, catalog #: NC9050370) or pooled human plasma (Innovative Research Inc., catalog # IPLA-1) was added to the columns of 1, 4, 7 and 10 of a 2 ml 96-well deep well plate (pION Inc., MA, #110023); this was the master plate. 1.9 μl compound stock was added to each well with plasmas and mixed well. Using a multi-channel pipette, 600 μl from the columns of 1, 4, 7 and 10 were taken and added into the rest of the columns (fluids in column 1 added to columns 2 and 3, column 4 into 5 and 6, and so on). From the master plate, 65 μl were taken from each well and added into 8 storage plates (pION Inc., MA, #110323), each for a time point. The storage plates was then incubated at 37° C. and shaken at 60 rpm. Samples were taken at 0 min, 30 min, 1 hr, 2 hr, 4 hr, 8 hr, 24 hr and 48 hr. At each time point, 195 μl internal standard was added to quench the reaction. The plates were then centrifuged at 4000 rpm for 15 min and supernatant was analyzed by UPLC-MS. The compound was detected by SIR and quantitation was based on peak area ratio of test compound vs. the internal standard.

[2] = Plasma stability, pooled human plasma; assay type: in vitro ADME; conditions: 37° C., up to 48 hr
Experimental: as §1

[3] = Liver microsomal stability, human; assay type: in vitro ADME; conditions: for CLint scaled at 19.8 µM: both sexes, human, liver microsomes, pH 7.4, intrinsic clearance calculated from t1/2, read-out: Human liver microsome CLint′; for human liver microsome t(½): pooled human liver microsomes, 37° C.
Experimental: (§2) 1.582 mL of mouse liver microsome (20 mg/mL, female CD-1 mice, pooled, Fisher Scientific, # NC9567486) was mixed with 0.127 ml of 0.5M EDTA solution and 48.3 ml potassium phosphate buffer (0.1M, pH 7.4, 37° C.) to make 50 ml of mouse liver microsome solution. Human liver microsomal solution was made with human liver microsome (50 pooled mix gender, Fisher Scientific #50-722-516) the same way. 1 volume of 10 mM DMSO compound stock was mixed with 4 volume of acetonitrile to make 2 mM diluted compound stock in DMSO and acetonitrile. 37.83 μL, diluted compound stock was added to 3 mL liver microsomal solution and vortexed to make microsomal solution with compound. 1 ml of liver microsomal solution with compound is added to each well of a master storage plate (pION Inc., MA, #110323). All compounds are in triplicates. Mouse and human liver microsomes were tested side by side on the same plate. 175 μL of each well was dispensed from the master plate into 5 storage plates. For 0 hour time point, 450 pit pre-cooled (4° C.) internal standard (10 μM warfarin in methanol) was added to the first plate before the reaction starts. 5.25 ml of microsome assay solution A (Fisher Scientific, # NC9255727) was combined with 1.05 ml of solution B (Fisher Scientific, # NC9016235) in 14.7 ml of potassium phosphate buffer (0.1 M, pH 7.4). 45 μL of this A+B solution was added to each well of all the 96-well storage plates and mixed with pipette briefly. The plates are sealed, and all plates except 0-hr plate were incubated at 37° C., shaken at a speed of 60 rpm. 0.5 hr, 1 hr, 2 hr and 4 hr time points were taken. At each time point, 450 μL pre-cooled internal standard was added to the plate to quench the reaction. The quenched plate was then centrifuged (model 5810R, Eppendorf, Westbury, N.Y.) at 4000 rpm for 15 minutes. 150 μL supernatant was transferred to a 96-well plate and analyzed by UPLC-MS (Waters Inc., Milford, Mass.). The compounds and internal standard were detected by SIR. The log peak area ratio (compound peak area/internal standard peak area) was plotted vs time (hr) and the slope was determined to calculate the elimination rate constant [k=(−2.303)*slope]. The half life (hr) was calculated as t (1/2)=0.693/k. Intrinsic clearance was calculated as CLint′=(0.693/(t1/2))*(1/microsomal concentration in the reaction solution)*(45 mg microsome/gram liver)*(gram liver/kg b.w.), where microsomal concentration in the reaction solution is 0.5 mg/ml, and gram liver/kg b.w. of CD-1 female mice and human are 52 and 20, respectively.

PBS stability = assay type: physicochemical; conditions: PBS pH 7.4, 37° C., up to 48 hr
Experimental: as §1, with “ml PBS (Mediatech Inc., Manassas, Va.,” for “ml mouse plasma (Fisher Scientific,”, “catalog #21-040-CM)” for “catalog #: NC9050370) or pooled human plasma (Innovative Research Inc., catalog # IPLA-1)”, “with […]” for “with plasmas”, “65 pil” for “65 μl”

[4] = Liver microsomal stability, mouse; assay type: in vitro ADME; conditions: for mouse liver microsome t(½): female CD-1 mouse liver microsomes, 37° C.; for CLint scaled at 19.8 µM: female, CD-1, mouse, liver microsomes, pH 7.4, intrinsic clearance calculated from t1/2, read-out: mouse liver microsome CLint′
Experimental: as §2

| Structure (SMILES) | mPlasma stability t(½) [1] [h] | hPlasma stability t(½) [2] [h] | CLint scaled at 19.8 µM [3] [mL/min/kg] | human liver microsome t(½) [3] [h] | PBS pH 7.4 stability t(½) (PBS stability) [hr] | mouse liver microsome t(½) [4] [h] | CLint scaled at 19.8 µM [4] [mL/min/kg] |
| --- | --- | --- | --- | --- | --- | --- | --- |
| COc1ccc(C2=NC(c3cccc(C)c3)C(c3ccc(Cl)cc3)N2C(=O)N2CCNC(=O)C2)c(OC(C)C)c1 (centres unmarked) [SJ000558304-1] | >48 | >48 | 14.2 | 1.46 | >48 | 0.73 | 73.9 |
| COc1ccc(C2=N[C@@H](c3cccc(Cl)c3)[C@@H](c3ccc(Cl)cc3)N2C(=O)N2CCNC(=O)C2)c(OC(C)C)c1 [SJ000558295-1] | >48 | >48 | 12.1 | 1.72 | >48 | 2.17 | 24.9 |
